# Results taken from ChEMBL document CHEMBL1201862, “PubChem BioAssay data set” (2004).
# Activity calls are given as the source filed them.
# Test system: H9c2;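 further: confirmatory concentration-response retest of ultra-high-throughput screening hits for modulation of myocardial damage; cell death induced by hydrogen peroxide oxidative stress; compound pretreatment for 60 min then peroxide exposure for 2 h; potency is for protecting the cells against peroxide damage rather than for killing them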
# Assay: cells
# Type: functional, cell-based
# Details: Rattus norvegicus, H9c2, Myocardium
row,Structure (SMILES),IC50
1,CCN(CC)C(=O)c1[nH]cnc1C(=O)NCC(=O)OCc1ccccc1,6.99 µM (active)
2,CC(C)(C)OC(=O)C[C@@H]1C/C=C\C[C@@H](CC(=O)N[C@@H](CO)Cc2ccccc2)C(=O)NC[C@@H](c2ccccc2)OC1=O,11.1 µM (active)
3,O=C(Nc1ccc2c(c1)nc(O)c1ccccc12)C(F)(F)F,> 79 µM (inactive)
4,c1ccc(N2CCOCC2)c(Nc2nc3ccccc3n3cnnc23)c1,> 79 µM (inactive)
5,O=C(Cn1[nH]c(=O)c2ccccc2c1=O)N1CC=C(c2ccccc2)CC1,> 79 µM (inactive)
6,O=C(CN1CCN(c2ccccn2)CC1)Nc1ccc([N+](=O)[O-])cc1C(=O)Nc1ccccc1F,> 79 µM (inactive)
7,COC(=O)c1ccccc1NC(=O)/C=C/c1cc(OC)c(OC)c(OC)c1,10.5 µM (active)
8,COc1ccc(OCC(O)Cn2c(Nc3cccc(C)c3)nc3c2c(=O)n(C)c(=O)n3C)cc1 (configuration not stated),10.1 µM (active)
9,CC(C)(C)OC(=O)C[C@H]1C/C=C\C[C@H](CC(=O)N[C@H](CO)Cc2ccccc2)C(=O)N[C@H](Cc2ccccc2)COC1=O,> 79 µM (inactive)
10,O=C(COC(=O)CCc1nc(O)c2ccccc2n1)NC(c1ccccc1)c1ccccc1,> 79 µM (inactive)

# Molecular target: Cytochrome P450 2C19 (Homo sapiens, UniProt P33261)
# Sequence (P33261 whole entry): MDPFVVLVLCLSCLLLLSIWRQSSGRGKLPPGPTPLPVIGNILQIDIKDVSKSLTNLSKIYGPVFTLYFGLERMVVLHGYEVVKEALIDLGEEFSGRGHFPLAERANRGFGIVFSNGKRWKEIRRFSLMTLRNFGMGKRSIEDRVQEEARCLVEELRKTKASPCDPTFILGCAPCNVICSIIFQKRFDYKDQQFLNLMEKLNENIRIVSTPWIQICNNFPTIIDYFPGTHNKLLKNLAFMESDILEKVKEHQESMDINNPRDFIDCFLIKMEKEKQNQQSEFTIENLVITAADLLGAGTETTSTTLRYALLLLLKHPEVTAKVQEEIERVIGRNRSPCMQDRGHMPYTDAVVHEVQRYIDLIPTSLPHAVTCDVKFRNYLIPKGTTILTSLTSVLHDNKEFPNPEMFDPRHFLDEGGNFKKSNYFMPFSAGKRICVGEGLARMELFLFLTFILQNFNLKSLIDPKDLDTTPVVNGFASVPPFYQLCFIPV
# Assay: Cytochrome panel assay with activity outcomes. Panel member name: p450-cyp2c19 Compounds with AC50 equal or less than 10 uM are considered active
# Type: functional
# Details: not given
row,Structure (SMILES),AC50
1,Cc1nc2ccccc2n1CC(=O)N/N=C\c1ccccn1,inconclusive
2,CN(C)CCNc1ccccn1,inconclusive

# Same assay, conditions: read-out: AC50
row,Structure (SMILES),AC50
1,CC(C)c1cccc2nc3c(c(C(C)(C)C)c12)Cn1c-3cccc1=O,25.1 µM (inconclusive)
2,COc1ccc2[nH]cc(C=O)c2c1,28.2 µM (inconclusive)
3,C=CCNC(=O)c1ccc2nc(-c3ccccc3)c(-c3ccccc3)nc2c1,39.8 µM (inconclusive)
4,C=C(CC1([C@@H](NP(=O)(c2ccccc2)c2ccccc2)[C@H]2C[C@@H]2CCCC)CC1)c1ccccc1,7.94 µM (inconclusive)
5,[O-][n+]1c2c([n+]([O-])c3cc(F)c(F)cc31)CCCC2,1 µM (inconclusive)
6,COc1c(/C=N/Nc2nc(N3CCCCC3)nc(N3CCCCC3)n2)cccc1[N+](=O)[O-],7.94 µM (inconclusive)

# Molecular target: T1, Heat shock factor protein 1 (Mus musculus, UniProt P38532)
# T1 sequence (P38532 whole entry): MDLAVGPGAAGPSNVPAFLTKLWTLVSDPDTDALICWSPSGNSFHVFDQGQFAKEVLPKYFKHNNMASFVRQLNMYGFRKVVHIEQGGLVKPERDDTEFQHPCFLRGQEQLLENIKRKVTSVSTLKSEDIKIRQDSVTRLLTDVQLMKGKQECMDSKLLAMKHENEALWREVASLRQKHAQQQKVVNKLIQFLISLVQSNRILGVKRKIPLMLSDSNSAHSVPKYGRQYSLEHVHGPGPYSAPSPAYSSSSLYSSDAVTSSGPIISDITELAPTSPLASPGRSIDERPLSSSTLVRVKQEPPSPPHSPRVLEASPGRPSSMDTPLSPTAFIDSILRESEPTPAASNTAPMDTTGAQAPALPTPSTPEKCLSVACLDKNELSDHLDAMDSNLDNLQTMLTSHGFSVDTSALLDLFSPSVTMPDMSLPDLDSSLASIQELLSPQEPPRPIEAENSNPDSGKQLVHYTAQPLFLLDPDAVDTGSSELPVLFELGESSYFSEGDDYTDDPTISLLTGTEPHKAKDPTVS
# Assay: enhancement of HSF1-driven luciferase signal – cell-based, NIH3T3, luminescence, dose retest, confirmation (AID 435004);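 further: stress induced by proteasome inhibitor MG132 added 30 min after compound; luciferase reporter driven by HSF1 response element in NIH3T3 cells; actives raise luminescence as potentiators of the MG132 stress response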
# Type: functional
# Details: not given
row,Structure (SMILES),EC50
1,CC1CCN(C(c2ccc(N(C)C)cc2)c2nnnn2Cc2ccccc2)CC1 (configuration not stated),> 260 µM (inactive)
2,CS(=O)(=O)c1nc(-c2ccccc2)cc(-c2ccccc2)c1C#N,16.7 µM (active)
3,CCOc1ccc(S(=O)(=O)c2c(C(=O)c3ccccc3)cnc3cc4c(cc23)OCCO4)cc1,> 260 µM (inactive)
4,Cc1cccc(OCC(=O)Nc2ccc3c(c2)nc(CCN2CCCCC2)n3C)c1,> 260 µM (inactive)
5,C/C(CCc1oc2c(Br)cc(Br)cc2c1-c1ccc(C)o1)=N\O,> 260 µM (inactive)
6,COc1ccc2c(c1)-c1c(sn(-c3ccccc3)c1=S)C(C)(C)N2,> 260 µM (inactive)
7,CCOc1ccc(S(=O)(=O)NN=C(S)Nc2ccc(Br)cc2)cc1,> 260 µM (inactive)
8,O=C(NCCN1CCN(C(=O)c2ccc(Br)cc2)CC1)c1ccc(Br)cc1,> 260 µM (inactive)
9,CC(C)NC(=O)CN(C(=O)CCC(=O)Nc1nccs1)c1ccc2c(c1)OCO2,> 260 µM (inactive)
10,Cc1cccc(-[n+]2c(C)cc(C)c3c(=O)[nH]c(=O)[nH]c32)c1,> 260 µM (inactive)
11,NS(=O)(=O)c1ccc(NC(=O)CN2C(=O)CCC2=O)cc1,> 260 µM (inactive)

# Test system: INS1
# Assay: INS-1E survival protection against cytokine death – cell-based, luminescence, retest, dose response (AID 449756);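 further: cell death triggered by IL-1 beta plus TNF-alpha plus IFN-gamma mixture; protective hits raise ATP signal compared with cytokine alone wells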
# Type: functional
# Details: Rattus norvegicus
row,Structure (SMILES),AC50
1,COC(=O)c1ccc2c(=O)n(-c3ccccc3)c(SCN3C(=O)c4ccccc4C3=O)nc2c1,6.09 µM (active)
2,COc1ccc(/C(C)=N/Nc2nc(C)cc(-c3ccccc3)n2)cc1,0.703 µM (active)

# Test system: not listed separately
# Assay: viability of HCT116 lacking mutant beta-catenin – cell-based, human colon tumor, dose response (AID 1045);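 further: HCT116 colon tumor cells with beta catenin knocked out; cells exposed to compound for 60 hours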
# Type: functional
# Details: not given
row,Structure (SMILES),EC50
1,CC(Nc1nc(N2CCCC2)nc2ccccc12)c1ccccc1 (configuration not stated),4.31 µM (active)
2,NC(=O)c1c(NC(=O)c2ccc(S(=O)(=O)N(CCCl)CCCl)cc2)sc2c1CCCCC2,20.5 µM (active)
3,CCOC(=O)C1=C(c2ccccc2)N=c2s/c(=C\c3cccc(O)c3)c(=O)n2C1c1cccs1 (configuration not stated),15.1 µM (active)
4,C=CCNC(=O)/C(C#N)=C/c1c(N(Cc2ccccc2)Cc2ccccc2)nc2ccccn2c1=O,25.3 µM (active)
5,CCc1ccc2c(c1)C1(NN=C(c3ccc(C)cc3)S1)C(=O)N2 (configuration not stated),2.81 µM (active)
6,Cc1ccc2c(c1)C1CCCC3C1N2CC(=O)N3Cc1ccccc1 (configuration not stated),62.7 µM (active)
7,COC(=O)c1cc(=O)n(Cc2ccco2)/c(=N/c2ccc(F)c(Cl)c2)s1,7.55 µM (active)
8,COc1ccc(CNCc2cc3c(C(C)(C)C)nn(-c4ccccc4)c3nc2O)cc1,14.2 µM (active)
9,O=C(N/N=C\c1ccc(CNS(=O)(=O)c2ccc(Cl)cc2)o1)C(=O)Nc1ccc(Oc2ccccc2)cc1,11.1 µM (active)
10,O=[N+]([O-])c1cccc(/C=C/c2nc(/C=N/c3ccc4ccccc4c3)c(O)o2)c1,18 µM (active)
11,COc1ccc(OC)c2sc(NC(=O)CCS(=O)(=O)c3ccccc3)nc12,62 µM (active)
12,Nc1c(C(=O)NCCN2CCOCC2)c2nc3ccccc3nc2n1CCc1ccccc1,17.9 µM (active)
13,Cc1c(C(=O)Nc2ccc(-c3nnc4n3CCCCC4)cc2)oc2c1ccc1ccccc12,20.9 µM (active)

# Test system: Streptococcus
# Assay: GAS UMAA2166 growth inhibition – luminescence, BacTiterGlo, counter-screen for streptokinase expression inhibitor project, dose response (AID 1915);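 further: potency for reduction of bacterial viability or growth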
# Type: functional, organism-based
# Details: not given
row,Structure (SMILES),EC50
1,C=C(CC1([C@@H](NP(=O)(c2ccccc2)c2ccccc2)[C@H]2C[C@@H]2CCCC)CC1)c1ccccc1,4.4 µM (active)

# Test system: not listed separately
# Assay: Luminescence Cell-Based Dose Retest to Confirm Inhibitors of Cancer Stem Cells. [Related pubchem assays (depositor defined):AID2717, AID2721]
# Type: functional, Homo sapiens
# Details: Homo sapiens
row,Structure (SMILES),AC50
1,CCOC(=O)C1=C(c2ccccc2)N=c2s/c(=C\c3cccc(O)c3)c(=O)n2C1c1cccs1 (configuration not stated),2.94 µM (active)
2,C=C(CC1([C@@H](NP(=O)(c2ccccc2)c2ccccc2)[C@H]2C[C@@H]2CCCC)CC1)c1ccccc1,3.22 µM (active)
3,Cc1c(C(=O)Nc2ccc(-c3nnc4n3CCCCC4)cc2)oc2c1ccc1ccccc12,2.48 µM (active)

# Test system: not listed separately
# Assay: Trypanosoma cruzi growth suppression in host cells – NIH3T3 host cells, beta-gal luminescence, confirmation (AID 2044);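 further: intracellular parasites grown in NIH/3T3 mouse fibroblasts as host cells; luminescent beta-galactosidase reporter signal from transgenic T. cruzi replicating inside host cells; inhibitors lower the luminescence signal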
# Type: functional, cell-based
# Details: not given
row,Structure (SMILES),EC50
1,CC(Nc1nc(N2CCCC2)nc2ccccc12)c1ccccc1 (configuration not stated),0.568 µM (active)
2,CCOc1ccc(S(=O)(=O)c2c(C(=O)c3ccccc3)cnc3cc4c(cc23)OCCO4)cc1,2.43 µM (active)
3,Cc1c(C(=O)Nc2ccc(-c3nnc4n3CCCCC4)cc2)oc2c1ccc1ccccc12,1.45 µM (active)

# Test system: Streptococcus sp. 'group A'
# Assay: Streptococcus pyogenes SK(-)GAS viability under kanamycin – luminescence, BacTiterGlo, confirmation, counter-screen for streptokinase expression inhibitor project, dose response (AID 1900)
# Type: functional, organism-based
# Details: not given
row,Structure (SMILES),EC50
1,C=C(CC1([C@@H](NP(=O)(c2ccccc2)c2ccccc2)[C@H]2C[C@@H]2CCCC)CC1)c1ccccc1,2.27 µM (active)

# Test system: not listed separately
# Assay: viability of PTEN-deleted HCT116 cells – cell-based, HCT116 PTEN knockout, dose response (AID 1047);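 further: HCT116 colon tumor cells with PTEN knocked out; cells exposed to compound for 60 hours before readout; potency for loss of cell viability measured by luminescence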
# Type: functional
# Details: not given
row,Structure (SMILES),EC50
1,CC(Nc1nc(N2CCCC2)nc2ccccc12)c1ccccc1 (configuration not stated),5.65 µM (active)
2,NC(=O)c1c(NC(=O)c2ccc(S(=O)(=O)N(CCCl)CCCl)cc2)sc2c1CCCCC2,15 µM (active)
3,CCOC(=O)C1=C(c2ccccc2)N=c2s/c(=C\c3cccc(O)c3)c(=O)n2C1c1cccs1 (configuration not stated),15 µM (active)
4,C=CCNC(=O)/C(C#N)=C/c1c(N(Cc2ccccc2)Cc2ccccc2)nc2ccccn2c1=O,26 µM (active)
5,CCc1ccc2c(c1)C1(NN=C(c3ccc(C)cc3)S1)C(=O)N2 (configuration not stated),4.58 µM (active)
6,Cc1ccc2c(c1)C1CCCC3C1N2CC(=O)N3Cc1ccccc1 (configuration not stated),33.9 µM (active)
7,COC(=O)c1cc(=O)n(Cc2ccco2)/c(=N/c2ccc(F)c(Cl)c2)s1,8.9 µM (active)
8,COc1ccc(CNCc2cc3c(C(C)(C)C)nn(-c4ccccc4)c3nc2O)cc1,10.3 µM (active)
9,O=C(N/N=C\c1ccc(CNS(=O)(=O)c2ccc(Cl)cc2)o1)C(=O)Nc1ccc(Oc2ccccc2)cc1,9.47 µM (active)
10,O=[N+]([O-])c1cccc(/C=C/c2nc(/C=N/c3ccc4ccccc4c3)c(O)o2)c1,12.8 µM (active)
11,COc1ccc(OC)c2sc(NC(=O)CCS(=O)(=O)c3ccccc3)nc12,81.3 µM (active)
12,Nc1c(C(=O)NCCN2CCOCC2)c2nc3ccccc3nc2n1CCc1ccccc1,15.4 µM (active)
13,Cc1c(C(=O)Nc2ccc(-c3nnc4n3CCCCC4)cc2)oc2c1ccc1ccccc12,19.8 µM (active)

# Molecular target: T2, Streptokinase A (Streptococcus pyogenes serotype M1, UniProt P10520)
# T2 sequence (P10520 whole entry): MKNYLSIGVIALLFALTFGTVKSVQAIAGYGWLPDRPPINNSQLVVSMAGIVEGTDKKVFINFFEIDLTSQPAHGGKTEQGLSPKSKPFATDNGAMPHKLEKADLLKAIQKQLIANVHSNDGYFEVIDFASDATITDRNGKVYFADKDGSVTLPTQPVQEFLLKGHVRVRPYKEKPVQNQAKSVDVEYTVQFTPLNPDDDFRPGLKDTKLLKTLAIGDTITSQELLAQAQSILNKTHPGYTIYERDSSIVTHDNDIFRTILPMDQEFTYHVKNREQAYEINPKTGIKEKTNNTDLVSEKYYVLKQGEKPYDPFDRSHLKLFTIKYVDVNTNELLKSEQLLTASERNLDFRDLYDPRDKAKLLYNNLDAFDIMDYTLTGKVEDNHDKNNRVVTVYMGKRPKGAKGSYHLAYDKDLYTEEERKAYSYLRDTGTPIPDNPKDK
# Assay: viability-normalized secreted streptokinase activity reduction – plasminogen activation absorbance, OD405, dose response (AID 1914);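 further: secreted streptokinase activity via plasminogen activation per viability signal from cell pellet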
# Type: functional, Streptococcus pyogenes M1 GAS
# Details: not given
row,Structure (SMILES),EC50
1,C=C(CC1([C@@H](NP(=O)(c2ccccc2)c2ccccc2)[C@H]2C[C@@H]2CCCC)CC1)c1ccccc1,> 150 µM (not active)

# Test system: not listed separately
# Assay: NIH3T3 cell viability loss – ATP luminescence, mouse fibroblasts, counter-screen, dose response (AID 2010);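 further: cells exposed to compound for about 90 hours before reading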
# Type: functional, cell-based
# Details: not given
row,Structure (SMILES),EC50
1,CC(Nc1nc(N2CCCC2)nc2ccccc12)c1ccccc1 (configuration not stated),55.9 µM (active)
2,CCOc1ccc(S(=O)(=O)c2c(C(=O)c3ccccc3)cnc3cc4c(cc23)OCCO4)cc1,17.8 µM (active)
3,Cc1c(C(=O)Nc2ccc(-c3nnc4n3CCCCC4)cc2)oc2c1ccc1ccccc12,> 60 µM (not active)

# Molecular target: Cytochrome P450 3A4 (Homo sapiens, UniProt P08684);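 further: CYP3A4 tested as one member of a cytochrome P450 panel screen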
# Sequence (P08684 whole entry): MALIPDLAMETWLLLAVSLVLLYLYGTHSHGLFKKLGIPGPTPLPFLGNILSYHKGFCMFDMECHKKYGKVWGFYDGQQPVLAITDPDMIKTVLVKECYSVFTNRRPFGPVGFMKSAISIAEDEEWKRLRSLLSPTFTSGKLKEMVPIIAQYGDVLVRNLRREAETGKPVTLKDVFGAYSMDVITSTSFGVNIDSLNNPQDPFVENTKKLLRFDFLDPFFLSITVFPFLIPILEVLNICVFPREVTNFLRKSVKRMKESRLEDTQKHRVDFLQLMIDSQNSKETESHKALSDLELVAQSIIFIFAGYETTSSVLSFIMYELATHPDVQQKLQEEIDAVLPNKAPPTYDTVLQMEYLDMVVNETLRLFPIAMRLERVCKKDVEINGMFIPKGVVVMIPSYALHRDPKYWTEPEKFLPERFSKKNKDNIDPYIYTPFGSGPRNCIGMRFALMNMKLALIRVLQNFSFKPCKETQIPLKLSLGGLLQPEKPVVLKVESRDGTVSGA
# Assay: not given
# Details: not given
row,Structure (SMILES),AC50
1,CC(C)c1cccc2nc3c(c(C(C)(C)C)c12)Cn1c-3cccc1=O,5.01 µM (inconclusive)
2,COCCn1c(=O)c(-c2cc(F)cc(F)c2)nc2cncnc21,15.8 µM (inconclusive)
3,CS(=O)(=O)c1nc(-c2ccccc2)cc(-c2ccccc2)c1C#N,22.4 µM (inconclusive)
4,CCCNC(=O)OC[C@@H]1O[C@H](CCON=C(C)C)C=C[C@@H]1Oc1ccc(OC)cc1,3.98 µM (inconclusive)
5,Cc1cc(C(C)(C)C)c(OCCCN2CCOCC2)c(C(C)(C)C)c1,3.16 µM (inconclusive)
6,O=C(c1ccco1)N1CCC2(CCCN(c3ccccc3)C2)CC1,15.8 µM (inconclusive)
7,COCC(=O)N/N=C/c1ccc(Sc2nc3ccccc3s2)o1,22.4 µM (inconclusive)
8,CC(C)(C)NC(=O)C(c1ccccn1)N(C(=O)C1CSC(=O)C1)c1ccc(F)cc1 (configuration not stated),0.794 µM (inconclusive)
